Values joined by “and” are separate entries in the source; they are usually repeats but may differ in a detail not shown here. Identical values can stand only once.
Experiments:
hCB1 receptor [1] = biological target: T1, hCB1 receptor (Homo sapiens, UniProt P21554); test: hCB1 Gαq16-coupled calcium mobilization assay in CHO-K1 cells; format: cell-based; conditions: hCB1 Ca EC50, CHO cells expressing hCB1 and Gαq16, calcium mobilization
hCB2 receptor [2] = biological target: T2, hCB2 receptor (Homo sapiens, UniProt P34972); test: hCB2 Gαq16-coupled calcium mobilization assay in CHO-K1 cells; format: cell-based; conditions: hCB2 Ca EC50, CHO cells expressing hCB2 and Gαq16, calcium mobilization
T2 sequence (P34972 whole entry): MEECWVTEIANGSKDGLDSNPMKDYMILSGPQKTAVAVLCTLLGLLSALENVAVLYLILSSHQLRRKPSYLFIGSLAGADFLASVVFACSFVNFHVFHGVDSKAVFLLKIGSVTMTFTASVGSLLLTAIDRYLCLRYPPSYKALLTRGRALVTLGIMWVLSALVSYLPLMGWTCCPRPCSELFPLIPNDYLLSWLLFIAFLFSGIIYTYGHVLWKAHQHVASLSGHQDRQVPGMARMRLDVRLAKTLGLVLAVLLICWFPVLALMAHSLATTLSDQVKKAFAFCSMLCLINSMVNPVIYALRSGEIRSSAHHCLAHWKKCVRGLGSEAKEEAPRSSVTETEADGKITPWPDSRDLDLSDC

hCB1 receptor [3] = biological target: T1, hCB1 receptor; test: [3H]CP55940 radioligand displacement, CHO cell membranes overexpressing hCB1; format: binding
hCB2 receptor [4] = biological target: T2, hCB2 receptor; test: [3H]CP55940 radioligand displacement, CHO cell membranes overexpressing hCB2; format: binding
Human liver microsome = format: in vitro ADME; conditions: pooled human liver microsomes, pH 7.4
CYP1A2 = CYP1A2 induction assay in HepaRG cells; format: cell-based, human; conditions: 10 μM, 24 hrs, % of positive control 50 μM omeprazole
CYP2B6 = CYP2B6 induction assay in HepaRG cells; format: cell-based, human; conditions: 10 μM, 24 hrs, % of positive control 1 mM phenobarbital
CYP3A4 = CYP3A4 induction assay in HepaRG cells; format: cell-based, human; conditions: 10 μM, 24 hrs, % of positive control 10 μM rifampicin
[5] = Mouse pharmacokinetic study; format: in vivo, C57BL/6 mice; conditions: for plasma levels: mice, 3 mg/kg po, data not shown
[6] = tested on: CYP3A4, CYP1A2 and CYP2B6; test: Isoform-specific CYP induction assays in HepaRG cells, overall profile; format: cell-based, human; conditions: data not shown

T1 sequence (P21554 whole entry): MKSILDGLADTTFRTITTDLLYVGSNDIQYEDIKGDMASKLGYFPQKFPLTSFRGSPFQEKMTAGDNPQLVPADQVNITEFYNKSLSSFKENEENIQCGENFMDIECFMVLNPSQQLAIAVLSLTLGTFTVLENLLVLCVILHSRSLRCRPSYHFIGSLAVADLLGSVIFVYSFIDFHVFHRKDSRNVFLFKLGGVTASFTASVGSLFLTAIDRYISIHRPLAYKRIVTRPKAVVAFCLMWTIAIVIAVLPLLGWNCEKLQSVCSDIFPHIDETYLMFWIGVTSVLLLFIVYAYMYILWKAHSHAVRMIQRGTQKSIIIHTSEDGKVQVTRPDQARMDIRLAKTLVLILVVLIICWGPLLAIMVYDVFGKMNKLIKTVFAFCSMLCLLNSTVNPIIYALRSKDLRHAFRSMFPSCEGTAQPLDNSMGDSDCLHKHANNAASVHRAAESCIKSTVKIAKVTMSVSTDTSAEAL

| Structure (SMILES) | EC50 (hCB1 receptor [1]) | EC50 (hCB2 receptor [2]) [nM] | Ki (hCB1 receptor [3]) [nM] | Ki (hCB2 receptor [4]) [nM] | half-life at 1 μM (Human liver microsome) [h] | microsomal CLint at 1 μM (Human liver microsome) [µL/min/mg] | further results |
| --- | --- | --- | --- | --- | --- | --- | --- |
| CC(C)(NC(=O)c1nn(Cc2ccc(F)cc2)c2ccccc12)C(=O)N1CCC[C@H]1C(N)=O [Compound 14, N-{1-[(2S)-2-Carbamoylpyrrolidin-1-yl]-2-methyl-1-oxopropan-2-yl}-1-[(4-fluorophenyl)methyl]-1H-indazole-3-carboxamide] | ~20 nM and 20 nM | 16 ± 1 | 4 | 6 | 10.2 | 2 |  |
| CCCCCn1nc(C(=O)NC(C)(C)c2cccc(C(N)=O)c2)c2ccccc21 [Compound 52, N-[2-(3-Carbamoylphenyl)propan-2-yl]-1-pentyl-1H-indazole-3-carboxamide] | 202 ± 16 nM | 175 ± 32 |  |  | 0.533 | 19 |  |
| CC(C)(NC(=O)c1nn(Cc2ccc(F)cc2)c2ccccc12)C1CCCN(CC(N)=O)C1 (stereo not shown) [Compound 34, N-{2-[1-(Carbamoylmethyl)piperidin-3-yl]propan-2-yl}-1-[(4-fluorophenyl)methyl]-1H-indazole-3-carboxamide] | 369 ± 57 nM | 28 ± 13 |  |  | < 0.333 |  |  |
| CC(C)(NC(=O)c1nn(CC2CCCC2)c2ccccc12)c1cccc(C(N)=O)c1 [Compound 48, N-[2-(3-Carbamoylphenyl)propan-2-yl]-1-(cyclopentylmethyl)-1H-indazole-3-carboxamide] | 893 ± 192 nM | 613 ± 351 |  |  | 0.367 | 58 |  |
| CC(C)(NC(=O)c1nn(Cc2ccc(F)cc2)c2ccccc12)C1CCCN(C(N)=O)C1 (stereo not shown) [Compound 31, N-[2-(1-Carbamoylpiperidin-3-yl)propan-2-yl]-1-[(4-fluorophenyl)methyl]-1H-indazole-3-carboxamide] |  | 29 ± 4 | 49 | 27 | 0.433 |  |  |
| CC(C)(NC(=O)c1nn(Cc2ccc(F)cc2)c2ccccc12)c1cccc(C(N)=O)c1 [Compound 24, N-[2-(3-Carbamoylphenyl)propan-2-yl]-1-[(4-fluorophenyl)methyl]-1H-indazole-3-carboxamide] | 25 ± 5 nM |  |  |  | 2.05 | 5 | CYP1A2 Induction (% of Omeprazole) (CYP1A2): <1%; CYP2B6 Induction (% of Phenobarbital) (CYP2B6): <1%; CYP3A4 Induction (% of Rifampicin) (CYP3A4): <1%; Max. Conc. Brain ([5]; mouse, IP 2.5 mg/kg, at 0.25 h): 1.4 ng/mL; Max. Conc. Liver ([5]; mouse, IP 2.5 mg/kg, at 0.25 h): 650 ng/mL; Max. Conc. Plasma ([5]; mouse, IP 2.5 mg/kg, at 0.25 h): 72 ng/mL |
| CC(C)(NC(=O)c1nn(CC2CCC(F)(F)CC2)c2ccccc12)c1cccc(C(N)=O)c1 [Compound 50, N-[2-(3-Carbamoylphenyl)propan-2-yl]-1-[(4,4-difluorocyclohexyl)methyl]-1H-indazole-3-carboxamide] |  |  | 2.5 | 3 | > 3.33 | < 5 | plasma levels [5]: < 30 ng/mL; CYP induction profile (in words) [6]: profile similar to that of 45 |
| CC(C)(NC(=O)c1nn(CC2CCOCC2)c2ccccc12)c1cccc(C(N)=O)c1 [Compound 51, N-[2-(3-Carbamoylphenyl)propan-2-yl]-1-(oxan-4-ylmethyl)-1H-indazole-3-carboxamide] |  |  | 150 | 56 | 3.13 | 3.3 | plasma levels [5]: < 30 ng/mL; CYP induction profile (in words) [6]: profile similar to that of 45 |
| CC(F)(F)CCCn1nc(C(=O)NC(C)(C)c2cccc(C(N)=O)c2)c2ccccc21 [Compound 53, N-[2-(3-Carbamoylphenyl)propan-2-yl]-1-(4,4-difluoropentyl)-1H-indazole-3-carboxamide] | 463 ± 187 nM | 3420 ± 151 | 54 | 75 | 2.67 | 7.9 |  |
| CC(C)(NC(=O)c1nn(CCCCC(F)(F)F)c2ccccc12)c1cccc(C(N)=O)c1 [Compound 55, N-[2-(3-Carbamoylphenyl)propan-2-yl]-1-(5,5,5-trifluoropentyl)-1H-indazole-3-carboxamide] | 156 ± 35 nM | 341 ± 145 |  |  | 1.7 | 6 |  |
| CC(C)(NC(=O)c1nn(Cc2ccc(C#N)cc2)c2ccccc12)c1cccc(C(N)=O)c1 [Compound 44, N-[2-(3-Carbamoylphenyl)propan-2-yl]-1-[(4-cyanophenyl)methyl]-1H-indazole-3-carboxamide] | 234 ± 154 nM | > 10000 |  |  | > 3.33 | < 5 |  |
| CC(C)(NC(=O)c1nn(CCCCC#N)c2ccccc12)c1cccc(C(N)=O)c1 [Compound 56, N-[2-(3-Carbamoylphenyl)propan-2-yl]-1-(4-cyanobutyl)-1H-indazole-3-carboxamide] | 731 ± 161 nM | 760 ± 175 |  |  | 3 | 7 |  |
| CC(C)(NC(=O)c1nn(Cc2ccc(F)cc2F)c2ccccc12)c1cccc(C(N)=O)c1 [Compound 45, N-[2-(3-Carbamoylphenyl)propan-2-yl]-1-[(2,4-difluorophenyl)methyl]-1H-indazole-3-carboxamide] | 151 ± 32 nM | 35 ± 6 |  |  | > 3.33 | < 5 | CYP1A2 Induction (% of Omeprazole) (CYP1A2): 20%; CYP2B6 Induction (% of Phenobarbital) (CYP2B6): 6%; CYP3A4 Induction (% of Rifampicin) (CYP3A4): 66%; Max. Conc. Brain ([5]; mouse, PO 3 mg/kg, at 0.5 h): 11 ng/mL; Max. Conc. Liver ([5]; mouse, PO 3 mg/kg, at 0.5 h): 920 ng/mL; Max. Conc. Plasma ([5]; mouse, PO 3 mg/kg, at 0.5 h): 160 ng/mL; Plasma Half-life (HL) ([5]; mouse, PO 3 mg/kg, 3 mg/kg): 7.3 h |
| CC(C)(NC(=O)c1nn(CCCCCF)c2ccccc12)c1cccc(C(N)=O)c1 [Compound 54, N-[2-(3-Carbamoylphenyl)propan-2-yl]-1-(5-fluoropentyl)-1H-indazole-3-carboxamide] | 84 ± 6 nM |  |  |  | 1.02 | 10 | plasma levels [5]: < 30 ng/mL; CYP induction profile (in words) [6]: profile similar to that of 45 |

Reference: publication PMC12439760 (Bioorganic & medicinal chemistry, 2025)
